One series has as its system Nannochloropsis sp. Format: cell-based. As to the method:
Under simulated outdoor growing conditions (30 ppt, 26-37° C., 14:10 of 1000 umol, F/2) 12 liter aquaria of Nannochloropsis sp., equipped with mixers and pH controlled (˜7.2) CO2 gas input, had 25% of culture volume removed daily which was variably (0-25% of total fraction) extracted of lipids with decane (15 min) and sonic (2 sec) energy, decanted of solvent, then returned to culture, while the remaining untreated fraction (0-25%) was removed, dried and extracted with hexane.

Series [1] has as its system Nannochloropsis sp. cultures.
Description: Variable fractions (0, 10%, 25%, and 50%) of identical 100 mL Nannochloropsis sp. cultures (n=2) were initially (arrows) mixed (15 min) with decane and exposed to an ultrasonic field (2 sec; 40 kHz water bath), decanted of solvent, then grown (F/2, 23° C., 24:0 of 100 μmol, 100 rpm, 33 ppt, 100 mL in 500 mL flasks). Further, variable timed treatments (arrows) at log-phase and stationary phases were also completed.
Series [2] has as its system cultures of Botryococcus braunii. The settings on record: cited from earlier work.

The structures appear in SMILES notation.

`CCCCCCCCCC` [decane]: in the series on Nannochloropsis sp., the “growth rates and resultant culture biomass” value is “augment growth rates and the resultant culture biomass”; the “tolerance of daily exposure to treatment” value was “tolerated”. The “growth rate and resultant algal biomass compared to no treatment” value in series [1] was “can positively affect growth rate and resultant algal biomass”.

For the compound `CCCCCCCCCCO` [decanol], the “solvent toxicity / biocompatibility” value in series [2] is given as “toxic”.

As to `CCCCCOCCCCC` [dipentyl ether], the “solvent toxicity / biocompatibility” value in series [2] was “toxic”.

On to `CCCCCCC` [heptane], for which the “solvent toxicity / biocompatibility” value in series [2] is “nontoxic”.

Consider `CCCCCC` [hexane], for which, in series [2], the “solvent toxicity / biocompatibility” value is recorded as “nontoxic”.

These data come from patent publication US20090181438A1, “OPTIMIZATION OF BIOFUEL PRODUCTION” (THE OHIO STATE UNIVERSITY RESEARCH FOUNDATION, priority 2007, published 2009).
